{
  "source": "paper PMC11493283",
  "about": "“N^4-Hydroxycytidine/molnupiravir inhibits RNA virus-induced encephalitis by producing less fit mutated viruses” (PLOS Pathogens, 2024)",
  "key": {"[1]": {"system": "LACV", "experiment": "LACV encephalitis mouse model, IP inoculation", "assay_type": "in vivo, C57BL/6 mice", "procedure": "(§1) Viral RNA was isolated using the Zymo Direct-zol RNA MiniPrep Kit (Zymo Research) per the manufacturer’s directions. First-strand complementary DNA (cDNA) was generated using iScript Reverse Transcriptase (Bio-Rad). qRT-PCR was performed using PowerUp SYBR Green Master Mix (ThermoFischer) on QuantStudio 6 (Applied Biosystems). Primers used for the reaction were synthesized by Integrated DNA Technologies (IDT) to quantify LACV viral RNA, targeting the M segment of the genome: forward primer 5’-[…]-3’, reverse primer 5’-[…]-3’.\n(§2) All animal experiments were performed following the protocols 2019-023-E and 2022-019-E approved by the National Institute of Allergy and Infectious Disease/National Institutes of Health/Rocky Mountain Laboratories Institutional Animal Care and Use Committee. For this study, a mix of male and female C57BL/6 mice at 23 to 25 days old were used. Mice were divided evenly and infected with LACV at either 1 × 10^3 pfu by an IP route or 1 x 10^2 pfu by an IN route. IP-infected mice were started on treatment with MOV at either the date of infection or at 3 dpi; the IN-infected mice were started on treatment on the day of infection. MOV was diluted in 10% polyethylene glycol (PEG), 2.5% Cremophor RH40, and 87.5% sterile water which was used as vehicle control. For oral administration, 300 mg/kg of MOV twice a day was given for up to 10 consecutive days using a straight 24-gauge ball-tip disposable feeding needle (Instech). Mice were examined twice daily for 28–30 days for clinical signs of LACV-induced neurologic disease, which mostly involved limb paralysis, ataxia, or repeated seizures. Mice showing one or more of these clinical symptoms were scored as having clinically significant disease and were subsequently euthanized for tissue removal. Occasionally, LACV-infected mice died from the acute seizures. These mice were also scored as having clinically significant disease and underwent tissue removal when possible.\n(§3) Brain tissue and lymph nodes were harvested from mice with clinical symptoms (as described above) or at 5 dpi and stored at -80°C. Half of the sagittal section of the brain tissue was used for plaque assays, and the other half for RNA isolation for qRT-PCR and sequencing. For the plaque assay, brain tissues were homogenized in the presence of DMEM using the Bead Mill 24 (Fisher Scientific) homogenizer at 5,300 rpm for 25 seconds. Homogenized samples were centrifuged at 5000 x g for 10 min. Supernatants were then diluted in DMEM containing 10% FBS to 10^−1 to 10^−7 dilutions and subjected to a plaque assay.\nWe used a digital scanner to scan the plaque assay plates. Digitized images were imported into FIJI/ImageJ v1.52n, and pixel calibration values were calculated based on the well diameter and corresponding digitized image. To quantify plaque size (surface area), wells with clearly isolated plaques were selected for segmentation and analysis. The image lookup table for each well was inverted followed by binarization prior to analysis, with a minimum area of 0.39 mm^2 to eliminate false positives due to slight variations in crystal violet staining. The measurements were imported into Microsoft Excel for data compilation, and graphed and analyzed using GraphPad Prism v9.3.1. Analysis of plaque size was done only when the plaque assays for different virus samples were done in parallel."}, "[2]": {"system": "LACV", "experiment": "LACV encephalitis mouse model, IN inoculation", "assay_type": "in vivo, C57BL/6 mice", "procedure": "as §1, §2, §3"}, "[3]": {"system": "LACV", "experiment": "MPID-NGS mutation rate of LACV RNA in brain tissue, IP-infected mice", "assay_type": "in vivo, C57BL/6 mice", "excerpt": "(§4) We used a Primer ID (PID) library preparation approach with Illumina MiSeq next-generation sequencing (NGS) to examine the mutagenic effects of these drugs on viral RNA allowing deep coverage of the viral population while maintaining a low method error rate (1 in 10,000 nucleotides). We designed cDNA primers targeting a 372 bp region of the RdRp gene within the L segment (referred as L7 in the study), and included a second amplicon covering a 455 bp portion of the M segment (referred as M4 in the study). Each cDNA primer included a block of random nucleotides (11 bases long) as the Primer ID/unique molecular identifier (UMI). Extracted viral RNA was reversed transcribed using SuperScript III (Thermal Fisher) to make cDNA in a single reaction with the two different cDNA primers. After bead purification, the cDNA was amplified by PCR using a mixture of forward primers and a universal reverse primer, followed by a second round of PCR to incorporate Illumina sequencing adapters and barcodes within the amplicons. After gel purification/extraction of the PCR product (Qiagen MinElute Gel Extraction kit), the extracted libraries were quantified using a Qubit fluorimeter and subjected to Agilent TapeStation analysis. For each sequencing run, 24 quantified libraries were pooled for MiSeq 300 base paired-end sequencing at the UNC High Throughput Sequencing Facility. Primers used for the library prep can be found in S1 Table. The initial Primer ID data were processed using the Illumina bcl2fastq pipeline (version 2.20.0), and then template consensus sequences (TCSs) were constructed using the tcs pipeline version 2.5.1 (https://primer-id.org/). Each type of substitution rate was calculated against the wildtype sequence at the sequenced regions. The sequencing date were submitted to the National Center for Biotechnology Information (NCBI) Sequence Read Archive (SRA), accession number is PRJNA1092655.\nAll animal experiments were performed following the protocols 2019-023-E and 2022-019-E approved by the National Institute of Allergy and Infectious Disease/National Institutes of Health/Rocky Mountain Laboratories Institutional Animal Care and Use Committee. For this study, a mix of male and female C57BL/6 mice at 23 to 25 days old were used. Mice were divided evenly and infected with LACV at either 1 × 10^3 pfu by an IP route or 1 x 10^2 pfu by an IN route. […] Mice showing one or more of these clinical symptoms were scored as having clinically significant disease and were subsequently euthanized for tissue removal. […] These mice were also scored as having clinically significant disease and underwent tissue removal when possible."}, "[4]": {"system": "LACV", "experiment": "MPID-NGS mutation rate of LACV RNA in brain tissue, IN-infected mice", "assay_type": "in vivo, C57BL/6 mice", "details": "IN infection", "excerpt": "as §4, with “After bead purification, the cDNA was amplified by PCR using a mixture of forward primers and a universal reverse primer, followed by a second round of PCR to incorporate Illumina sequencing adapters and barcodes within the amplicons.” left out, “Primers used for the library prep can be found in S1 Table. The initial Primer ID data were processed using the Illumina bcl2fastq pipeline (version 2.20.0), and then template consensus sequences (TCSs) were constructed using the tcs pipeline version 2.5.1 (https://primer-id.org/).” left out, “PRJNA1092655. […]” for “PRJNA1092655.”"}, "[5]": {"system": "LACV", "experiment": "Antiviral efficacy against LACV in Vero cells, virus titer by plaque assay", "assay_type": "cell-based", "details": "La Crosse virus, LACV 0.1 MOI, 24 hpi, read-out: EC50 (50% reduction in virus titer)", "procedure": "(§5) Cells were seeded in 24-well plates (1 × 10^5 cells/well) and infected with LACV (0.1 MOI). At 1 hour post infection (hpi), medium was replaced with fresh medium containing 6 different concentrations for each of the drugs. RBV and FAV were tested at concentrations of 1, 3, 10, 30, 100, and 300 μM, while NHC was tested at concentrations of 0.1, 0.3, 1, 3, 10 and 30 μM. DMSO was used as vehicle control. At 24 hpi, the cell supernatant was harvested, centrifuged to eliminate cell debris and stored at −80 °C for sequencing (described below) and plaque assay following the method of Ojha et al. 2021 [32]. Quantified virus titers were plotted to represent antiviral efficacy. The EC50 (50% effective concentration representing a 50% reduction in virus titer) was determined by extrapolating a dose-response curve using GraphPad Prism 8 and 9."}, "[6]": {"system": "LACV", "experiment": "Antiviral efficacy against LACV in N2a cells, virus titer by plaque assay", "assay_type": "cell-based", "details": "La Crosse virus, LACV 0.1 MOI, 24 hpi, read-out: EC50 (50% reduction in virus titer)", "procedure": "as §5"}, "[7]": {"system": "LACV", "experiment": "Antiviral efficacy against LACV in hNSCs, virus titer by plaque assay", "assay_type": "cell-based", "details": "La Crosse virus, LACV 0.1 MOI, 24 hpi, read-out: EC50 (50% reduction in virus titer)", "procedure": "as §5"}, "[8]": {"system": "LACV", "experiment": "MPID-NGS mutation rate of LACV in cell culture", "assay_type": "cell-based, La Crosse virus", "details": "Vero cells; RBV, FAV: increase only at 100 μM; NHC also in hNSCs and N2a", "procedure": "as §5\nas §4, with “Extracted viral RNA was reversed transcribed using SuperScript III (Thermal Fisher) to make cDNA in a single reaction with the two different cDNA primers. After bead purification, the cDNA was amplified by PCR using a mixture of forward primers and a universal reverse primer, followed by a second round of PCR to incorporate Illumina sequencing adapters and barcodes within the amplicons.” left out, “Primers used for the library prep can be found in S1 Table. The initial Primer ID data were processed using the Illumina bcl2fastq pipeline (version 2.20.0), and then template consensus sequences (TCSs) were constructed using the tcs pipeline version 2.5.1 (https://primer-id.org/).” left out"}, "[9]": {"system": "Vero cells", "details": "copied and converted to µM from µg/ml, ref not given; cited from earlier work"}, "[10]": {"system": "hNSCs", "details": "copied and converted to µM from µg/ml, ref not given; cited from earlier work"}, "[11]": {"details": "day 5, MOV from day 0, IP infection"}, "[12]": {"details": "oral MOV, started on the day of infection"}},
  "note": "pEC50: −log10 of the molar value.",
  "data": [
    {"smiles": "CC(C)C(=O)OC[C@H]1O[C@@H](n2ccc(NO)nc2=O)[C@H](O)[C@@H]1O", "note": "[MOV, molnupiravir]", "values": [
      {"measurement": "mice survived through 28-30 dpi", "setting": "[1]; MOV 300 mg/kg oral twice daily, delayed until 3 dpi, LACV 10^3 pfu IP", "result": 15, "unit": "%"},
      {"measurement": "mice survived to 28-30 dpi", "setting": "[1]; MOV 300 mg/kg oral twice daily, started on the day of infection, LACV 10^3 pfu IP", "result": 31, "unit": "%"},
      {"measurement": "infectious virus titer in brain tissue vs vehicle (plaque assay)", "setting": "[1]; [11]", "result": "significantly decreased"},
      {"measurement": "viral RNA load in brain tissue vs vehicle (qRT-PCR)", "setting": "[1]; [11]", "result": "significantly decreased"},
      {"measurement": "viral RNA load in lymph nodes vs vehicle (qRT-PCR)", "setting": "[1]; [11]", "result": "significantly decreased"},
      {"measurement": "decrease in neurological disease development", "setting": "[1]; [12]", "result": 31, "unit": "%"},
      {"measurement": "mice survived out of 13", "setting": "[1]; [12]", "result": 4},
      {"measurement": "average plaque size of virus from brain vs virus not exposed to MOV", "setting": "[1]; virus isolated from brain, IP infection", "result": "significantly smaller"},
      {"measurement": "mice with clinical signs out of 13", "setting": "[2]; MOV 300 mg/kg oral twice daily, IN infection, vehicle 7", "result": 4},
      {"measurement": "reduction in disease vs vehicle", "setting": "[2]; MOV oral from day of infection, IN infection", "result": "~50", "unit": "%"},
      {"measurement": "infectious virus titer in the brain vs vehicle (plaque assay)", "setting": "[2]; clinical mice, IN infection", "result": "slightly, but not significantly decreased"},
      {"measurement": "viral RNA in the brain vs vehicle (qRT-PCR)", "setting": "[2]; clinical mice, IN infection", "result": "significantly decreased"},
      {"measurement": "disease reduced by (abstract)", "setting": "[2]; virus administered intranasally", "result": 23, "unit": "%"},
      {"measurement": "increase in C-to-U transition rate vs vehicle", "setting": "[3]; brain tissue, IP infection", "result": "9.1 per 10,000 bases"},
      {"measurement": "increase in G-to-A transition rate vs vehicle", "setting": "[3]; brain tissue, IP infection", "result": "5.2 per 10,000 bases"},
      {"measurement": "increase in total mutation rate of the virus vs vehicle", "setting": "[3]; brain tissue, IP infection, averaged across amplicons", "result": "2.8 per 10,000 bases"},
      {"measurement": "decrease in viral load in brain tissue per 1 mutation increase per 10,000 nucleotides", "setting": "[3]; estimate from mutation rate vs LACV copy number", "result": "approximately 4.4 fold"},
      {"measurement": "increase in C-to-U mutations vs vehicle", "setting": "[4]", "result": "4.3 per 10,000 bases"},
      {"measurement": "increase in G-to-A mutations vs vehicle", "setting": "[4]", "result": "4.3 per 10,000 bases"}
    ]},
    {"smiles": "NC(=O)c1nc(F)c[nH]c1=O", "note": "[FAV, favipiravir]", "values": [
      {"measurement": "pEC50", "setting": "[5]", "result": 4.23},
      {"measurement": "pEC50", "setting": "[6]", "result": 4.52},
      {"measurement": "pEC50", "setting": "[7]", "result": 3.69},
      {"measurement": "mutation rate of LACV grown in presence of drug", "setting": "[8]", "result": "did not see a significant increase in mutation rates"},
      {"measurement": "CC50", "setting": "[9]", "result": 3340, "unit": "µM"},
      {"measurement": "CC50", "setting": "[10]", "result": 1060, "unit": "µM"}
    ]}
  ]
}
